Structures are written as SMILES.

System in one series: not listed separately
Kind of series: lg P (physical data).
Conditions: not given
By logP is commonly meant the decadic logarithm of the partition coefficient of the neutral form, usually between octanol and water. Read a low logP as lower lipophilicity. In turn, `O=C(Nc1ccc(Cl)c(Cl)c1)OCCCCN1CC([N+](=O)[O-])=C2N(Cc3ccc(Cl)nc3)CCN2C1` [Example 65] displayed a logP of 1.53.
On the same count and under the same terms, in the case of `CC(C)(C)C(=O)OCCNC(=O)OCCCCN1CC([N+](=O)[O-])=C2N(Cc3ccc(Cl)nc3)CCN2C1` [Example 63] it was 1.73; in that of `CC(COC(C)(C)C)NC(=O)OCCN1CC([N+](=O)[O-])=C2N(Cc3ccc(Cl)nc3)CCN2C1` (centres unmarked) [Example 33], 2.26.
Still for that read-out and setting: as for `CCOCCOCCNC(=O)OCCCCN1CC([N+](=O)[O-])=C2N(Cc3ccc(Cl)nc3)CCN2C1` [Example 59], the figure is 1.36; as for `COCCNC(=O)OCCCCCN1CC([N+](=O)[O-])=C2N(Cc3ccc(Cl)nc3)CCN2C1` [Example 36], 1.24.
The same measure, in the same setting: in the case of `CC(C)(C)CNC(=O)OCCCCCCN1CC([N+](=O)[O-])=C2N(Cc3ccc(Cl)nc3)CCN2C1` [Example 55] it was 2.05.
`CC(C)(C)CNC(=O)OCCCCN1CC([N+](=O)[O-])=C2N(Cc3ccc(Cl)nc3)CCN2C1` [Example 66] showed a logP of 1.75.
Still for that read-out and setting: as for `O=C(Nc1ccc(SC(F)(F)F)cc1)OCCCCCCN1CC([N+](=O)[O-])=C2N(Cc3ccc(Cl)nc3)CCN2C1` [Example 56], the figure is 2.71; as for `O=C(Nc1ccccc1)OCCCCCCN1CC([N+](=O)[O-])=C2N(Cc3ccc(Cl)nc3)CCN2C1` [Example 50], 2.01; as for `CCOCCOCCNC(=O)OCCN1CC([N+](=O)[O-])=C2N(Cc3ccc(Cl)nc3)CCN2C1` [Example 32], 1.26.
The compound `CC(=O)OCCNC(=O)OCCCCCN1CC([N+](=O)[O-])=C2N(Cc3ccc(Cl)nc3)CCN2C1` [Example 39] had a logP of 0.82.
The compound `O=C(Nc1ccc(S(=O)(=O)C(F)(F)F)cc1)OCCCCCCN1CC([N+](=O)[O-])=C2N(Cc3ccc(Cl)nc3)CCN2C1` [Example 49] gave a logP of 2.51.
In turn, `CC(=O)OCCNC(=O)OCCCCCCN1CC([N+](=O)[O-])=C2N(Cc3ccc(Cl)nc3)CCN2C1` [Example 51] displayed a logP of 1.47.
In turn, `O=C(Nc1ccc(Cl)cc1)OCCCCCCN1CC([N+](=O)[O-])=C2N(Cc3ccc(Cl)nc3)CCN2C1` [Example 53] returned a logP of 2.27.
The same measure, in the same setting: as for `O=C(Nc1ccc(S(=O)(=O)C(F)(F)F)cc1)OCCCCN1CC([N+](=O)[O-])=C2N(Cc3ccc(Cl)nc3)CCN2C1` [Example 60], the figure is 2.22; as for `COCCOCCNC(=O)OCCCCN1CC([N+](=O)[O-])=C2N(Cc3ccc(Cl)nc3)CCN2C1` [Example 58], 1.2.
On the same count and under the same terms, as for `O=C(Nc1ccc(SC(F)(F)F)cc1)OCCCCCN1CC([N+](=O)[O-])=C2N(Cc3ccc(Cl)nc3)CCN2C1` [Example 44], the figure is 2.74; as for `CCCCNC(=O)OCCCCCN1CC([N+](=O)[O-])=C2N(Cc3cnc(Cl)s3)CCN2C1` [Example 78], 1.73.
Same read-out and setting: as for `CC(C)(C)C(=O)OCCNC(=O)OCCCCCN1CC([N+](=O)[O-])=C2N(Cc3ccc(Cl)nc3)CCN2C1` [Example 40], the figure is 1.81.
`COC(C)(C)CNC(=O)OCCCCCCN1CC([N+](=O)[O-])=C2N(Cc3ccc(Cl)nc3)CCN2C1` [Example 57] showed a logP of 1.6.
Still for that read-out and setting: as for `CC(C)(C)C(=O)OCCNC(=O)OCCCCCCN1CC([N+](=O)[O-])=C2N(Cc3ccc(Cl)nc3)CCN2C1` [Example 52], the figure is 1.98; as for `CCCCNC(=O)OC(C)CN1CC([N+](=O)[O-])=C2N(Cc3ccc(Cl)nc3)CCN2C1` (centres unmarked) [Example 75], 1.63.
Same read-out and setting: in the case of `O=[N+]([O-])C1=C2N(Cc3cnc(Cl)s3)CCN2CN(CCCCCCO)C1` [II-15] it was 0.94; in that of `COCCOCCNC(=O)OCCCCCCN1CC([N+](=O)[O-])=C2N(Cc3ccc(Cl)nc3)CCN2C1` [Example 46], 1.47; in that of `CCOCCOCCNC(=O)OCCCCCCN1CC([N+](=O)[O-])=C2N(Cc3ccc(Cl)nc3)CCN2C1` [Example 47], 1.63.
Same read-out and setting: in the case of `O=C(Nc1ccc(Cl)cc1)OCCCCCN1CC([N+](=O)[O-])=C2N(Cc3ccc(Cl)nc3)CCN2C1` [Example 41] it was 2.09; in that of `O=C(Nc1ccc(S(=O)(=O)C(F)(F)F)cc1)OCCCCCN1CC([N+](=O)[O-])=C2N(Cc3ccc(Cl)nc3)CCN2C1` [Example 37], 2.29; in that of `O=C(Nc1ccccc1)OCCCCCN1CC([N+](=O)[O-])=C2N(Cc3ccc(Cl)nc3)CCN2C1` [Example 38], 1.79.
The compound `COCCOCCNC(=O)OCCCCCN1CC([N+](=O)[O-])=C2N(Cc3ccc(Cl)nc3)CCN2C1` [Example 34] displayed a logP of 1.28.
Still for that read-out and setting: in the case of `CC(=O)OCCNC(=O)OCCCCN1CC([N+](=O)[O-])=C2N(Cc3ccc(Cl)nc3)CCN2C1` [Example 62] it was 1.22; in that of `O=[N+]([O-])C1=C2N(Cc3cnc(Cl)s3)CCN2CN(CCCCCO)C1` [II-16], 0.71.
Compound `COC(C)(C)CNC(=O)OCCCCCN1CC([N+](=O)[O-])=C2N(Cc3ccc(Cl)nc3)CCN2C1` [Example 45] had a logP of 1.56.
On the same count and under the same terms, in the case of `O=C(Nc1ccccc1)OCCCCN1CC([N+](=O)[O-])=C2N(Cc3ccc(Cl)nc3)CCN2C1` [Example 61] it was 1.72.
Same read-out and setting: in the case of `COCCNC(=O)OCCCN1CC([N+](=O)[O-])=C2N(Cc3ccc(Cl)nc3)CCN2C1` [Example 31] it was 1.11.
On the same count and under the same terms, in the case of `O=C(Nc1ccc(Cl)c(Cl)c1)OCCCCCCN1CC([N+](=O)[O-])=C2N(Cc3ccc(Cl)nc3)CCN2C1` [Example 54] it was 2.59.
Turning to `CC(C)(C)CNC(=O)OCCCCCN1CC([N+](=O)[O-])=C2N(Cc3ccc(Cl)nc3)CCN2C1` [Example 43], the logP stood at 2.01.
The same measure, in the same setting: in the case of `CCOCCOCCNC(=O)OCCCCCN1CC([N+](=O)[O-])=C2N(Cc3ccc(Cl)nc3)CCN2C1` [Example 35] it was 1.44; in that of `CC(C)(C)NC(=O)OCCCCCCN1CC([N+](=O)[O-])=C2N(Cc3cnc(Cl)s3)CCN2C1` [Example 79], 1.9; in that of `COCCNC(=O)OCCCCCCN1CC([N+](=O)[O-])=C2N(Cc3ccc(Cl)nc3)CCN2C1` [Example 48], 1.44.

A further series has as its system Plutella maculipennis. Kind of series: Plutella test. Type of series: in vivo, Plutella maculipennis (diamond-back moth). To be noted: 72 h, active compound concentration 0.01 %, after 3d, read-out: Degree of destruction in % after 3d. The protocol: Solvent: 7 parts by weight of dimethylformamide
Emulsifier: 1 part by weight of alkylaryl polyglycol ether
To produce a suitable preparation of active compound, 1 part by weight of active compound is mixed with the stated amount of solvent and the stated amount of emulsifier, and the concentrate is diluted with water to the desired concentration.
Cabbage leaves (Brassica oleracea) are treated by being dipped into the preparation of active compound of the desired concentration and are infested with caterpillars of the diamond-back moth (Plutella maculipennis) while the leaves are still moist.
After the desired period of time, the destruction in % is determined. 100% means that all the caterpillars have been killed; 0% means that none of the caterpillars have been killed.
For `O=C(NCCCCCCCl)OCCCN1CC([N+](=O)[O-])=C2N(Cc3ccc(Cl)nc3)CCN2C1` [drawing 132], the mortality at 0.01 % worked out at 100%.
As to `CC(C)(C)CNC(=O)OCCCN1CC([N+](=O)[O-])=C2N(Cc3ccc(Cl)nc3)CCN2C1`, the mortality at 0.01 % was 100%.

Still in this series, the particulars now being: 72 h, active compound concentration 0.1 %, after 3d, read-out: Degree of destruction in % after 3d.
On to `O=C(NCCCCCCCl)OCCCN1CC([N+](=O)[O-])=C2N(Cc3ccc(Cl)nc3)CCN2C1` [drawing 132], for which the mortality at 0.1 % amounted to 100%.
Same read-out and setting: in the case of `CC(C)(C)CNC(=O)OCCCN1CC([N+](=O)[O-])=C2N(Cc3ccc(Cl)nc3)CCN2C1` it was 100%.

Staying with this series, now noted: 72 h, read-out: Degree of destruction in % after 3d.
For the compound `CCOC(=O)NCCN1CC([N+](=O)[O-])=C2N(Cc3ccc(Cl)nc3)CCN2C1` [drawing 124], the mortality at 0.01 % was found to be 100% and the mortality at 0.1 % was determined as 100%.
Consider `CC(=O)OCCN1CC([N+](=O)[O-])=C2N(Cc3ccc(Cl)nc3)CCN2C1`, for which the mortality at 0.01 % came to 100% and the mortality at 0.1 % was 100%.
With `CC(=O)NCCN1CC([N+](=O)[O-])=C2N(Cc3ccc(Cl)nc3)CCN2C1` [drawing 125], the mortality at 0.01 % came to 100% and the mortality at 0.1 % was 100%.
Turning to `CC(=O)OCCCN1CC([N+](=O)[O-])=C2N(Cc3ccc(Cl)nc3)CCN2C1` [drawing 129], the mortality at 0.01 % was found to be 100% and the mortality at 0.1 % was 100%.
Consider `CCOC(=O)NCCCN1CC([N+](=O)[O-])=C2N(Cc3ccc(Cl)nc3)CCN2C1` [drawing 126], for which the mortality at 0.01 % was found to be 100% and the mortality at 0.1 % was found to be 100%.

The values are drawn from patent US6054459A, “Substituted 1,2,3,4-tetrahydro-5-nitro-pyrimidines” (priority 1994, dated 2000).
